Literature values, collected in US20240277751A1, “CRYSTALLINE POLYMORPHIC FORMS OF STING AGONISTS ASSOCIATED WITH METAL IONS CAPABLE OF MODULATING AN IMMUNE RESPONSE” (priority 2020, published 2024).

For Nc1ncnc2c1ncn2[C@@H]1O[C@@H]2COP(=O)([S-])O[C@@H]3[C@H](O)[C@@H](COP([O-])(=S)O[C@H]2[C@H]1O)O[C@H]3n1cnc2c(N)ncnc21.[Na+].[Na+] (some centres unmarked) [MIW815], the “fraction entered the systemic circulation” value (1 hour after intratumor injection, phase I clinical trial) is given as “over 98%” and the half-life in serum (in vivo) is given as roughly 16 min.
